Tested on: Aβ40 production and/or release from SM-4 cells
Assay: Aβ40 ELISA of culture media from SM-4 cells
Format: cell-based
Conditions: 10-500 μM, 16 hrs
Procedure: Cell Lines and Pharmacological Treatments. 293 EBNA cells (InVitrogen, Carlsbad, Calif.) stably transfected with Swedish mutant β-Amyloid Precursor Protein -695 (SM4 cells) were routinely maintained in DMEM supplemented with sodium pyruvate (1 mM) and 10% fetal bovine serum. Cells were seeded into poly-D-Lysine (SIGMA) coated 6-well plates at a density of 5-7×10^5 cells per well. Subsequently, the cells were rinsed in 1 ml of PBS and treated with 10-500 μM of pirinixic acid in serum-free/phenol red-free DMEM for 16 hours. Aβ Detection and Standardization. After the pharmacological treatment, the exposure media was collected and supplemented with 10% sample treatment buffer (40 mM sodium phosphate (pH 7.4), 40 mM triethanolamine, 0.1% Triton X-100, 200 mM NaCl, 2 mM EGTA, 0.1% Sodium azide), and assayed for either Aβ40 or Aβ42 by a calorimetric ELISA as per the manufacturer's protocol (Biosource International Inc, California). The cells were lysed in 0.1% Triton X-100 in PBS supplemented with 5 μM propridium iodide (Molecular Probes, Eugene, Oreg.) and incubated at 37° C. for 30 minutes prior to measuring fluorescence. Aβ40 and Aβ42 were standardized against propridium iodide fluorescence as a measure of total cell number. 293 EBNA cells (InVitrogen, Carlsbad, Calif.) stably transfected with Swedish mutant β-Amyloid Precursor Protein -695 (SM4 cells) were routinely maintained in DMEM supplemented with sodium pyruvate (1 mM) and 10% fetal bovine serum. […] The cells were lysed in 0.1% Triton X-100 in PBS supplemented with 5 μM propridium iodide (Molecular Probes, Eugene, Oreg.) and incubated at 37° C. for 30 minutes prior to measuring fluorescence. Aβ40 and Aβ42 were standardized against propridium iodide fluorescence as a measure of total cell number. […] The cells were lysed in 0.1% Triton X-100 in PBS supplemented with 5 μM propridium iodide (Molecular Probes, Eugene, Oreg.) and incubated at 37° C. for 30 minutes prior to measuring fluorescence. Aβ40 and Aβ42 were standardized against propridium iodide fluorescence as a measure of total cell number.

Cc1cccc(Nc2cc(Cl)nc(SCC(=O)O)n2)c1C [pirinixic acid]
change in Aβ40 production and/or release: no significant change
